The values below come from ChEMBL document CHEMBL3400096, “6,7-Dihydrobenzo[f]benzo[4,5]imidazo[1,2-d][1,4]oxazepine derivatives as selective inhibitors of PI3Kα” (Bioorg Med Chem, 2015).

For test [1], the target named is T1, Phosphatidylinositol 4,5-bisphosphate 3-kinase catalytic subunit delta isoform (Homo sapiens, UniProt O00329).
T1 sequence (O00329 whole entry): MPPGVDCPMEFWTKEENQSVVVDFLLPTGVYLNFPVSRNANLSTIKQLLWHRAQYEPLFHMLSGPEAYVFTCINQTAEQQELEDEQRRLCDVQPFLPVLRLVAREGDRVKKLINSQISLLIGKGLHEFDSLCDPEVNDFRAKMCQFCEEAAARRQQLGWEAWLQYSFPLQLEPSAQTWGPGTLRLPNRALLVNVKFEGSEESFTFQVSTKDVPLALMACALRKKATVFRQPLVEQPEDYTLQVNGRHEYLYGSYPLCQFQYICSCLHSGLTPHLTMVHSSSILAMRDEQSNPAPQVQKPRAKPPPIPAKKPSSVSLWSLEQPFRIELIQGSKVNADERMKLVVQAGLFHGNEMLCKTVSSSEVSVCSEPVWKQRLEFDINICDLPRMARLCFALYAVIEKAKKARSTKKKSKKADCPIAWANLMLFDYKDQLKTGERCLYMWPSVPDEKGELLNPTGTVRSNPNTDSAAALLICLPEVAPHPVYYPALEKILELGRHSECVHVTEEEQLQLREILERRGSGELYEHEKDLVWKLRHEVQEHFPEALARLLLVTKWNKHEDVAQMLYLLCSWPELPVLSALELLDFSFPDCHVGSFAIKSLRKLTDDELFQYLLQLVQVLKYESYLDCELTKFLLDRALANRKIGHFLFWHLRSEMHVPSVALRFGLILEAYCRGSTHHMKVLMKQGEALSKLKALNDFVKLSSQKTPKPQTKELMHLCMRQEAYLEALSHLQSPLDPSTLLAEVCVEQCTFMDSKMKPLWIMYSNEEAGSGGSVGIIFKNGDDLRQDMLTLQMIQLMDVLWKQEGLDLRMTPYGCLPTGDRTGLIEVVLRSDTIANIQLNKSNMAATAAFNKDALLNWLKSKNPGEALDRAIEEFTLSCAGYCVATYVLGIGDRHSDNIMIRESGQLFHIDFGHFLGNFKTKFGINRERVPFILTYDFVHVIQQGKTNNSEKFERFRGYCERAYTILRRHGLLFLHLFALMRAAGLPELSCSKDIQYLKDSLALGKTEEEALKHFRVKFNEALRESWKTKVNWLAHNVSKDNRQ
The test is described as follows: Inhibition of recombinant PI3Kdelta (unknown origin) using […] as substrate after 3 hrs incubation by competitive fluorescence polarization kinase activity assay.

In test [2] the test system is HCT-116. In words: Induction of apoptosis in human HCT116 cells assessed as early apoptotic cells after 24 hrs using annexin V/propidium iodide staining based flow cytometry. Format: functional, cell-based.
Test [3] in a line: Antiproliferative activity against human HCT116 cells assessed as inhibition of absorbance after 72 hrs by MTT assay. The class given is functional, cell-based. The following applies: HCT-116, 72 h.
The test system of test [4] is HCT-116. The test is described as follows: Induction of apoptosis in human HCT116 cells assessed as early apoptotic cells at 0.5 uM after 24 hrs using annexin V/propidium iodide staining based flow cytometry (reference value: 1.93%). The class given is functional.
Test [5] has as its system HCT-116. In words: Induction of apoptosis in human HCT116 cells assessed as early apoptotic cells at 1 uM after 24 hrs using annexin V/propidium iodide staining based flow cytometry (reference value: 1.93%). The class given is functional.
The nature of test [6]: Antiproliferative activity against human HuH7 cells assessed as inhibition of absorbance after 72 hrs by MTT assay. The class given is functional, cell-based. The settings on record: Huh-7, 72 h.
In test [7] the test system is HCT-116. In words: Induction of apoptosis in human HCT116 cells assessed as viable cells at 0.5 uM after 24 hrs using annexin V/propidium iodide staining based flow cytometry (reference value: 93.3%). Format: functional. The settings on record: HCT-116, 24 h, read-out: Activity.
The nature of test [8]: Antiproliferative activity against human HL60 cells assessed as inhibition of absorbance after 72 hrs by MTT assay. Format: functional, cell-based. The following applies: HL-60, 72 h.
Test [9] deals with HCT-116. The test is described as follows: Induction of apoptosis in human HCT116 cells assessed as early apoptotic cells at 2 uM after 24 hrs using annexin V/propidium iodide staining based flow cytometry (reference value: 1.93%). Format: functional.
A further test relates to A549. In words: Antiproliferative activity against human A549 cells assessed as inhibition of absorbance after 72 hrs by MTT assay. Format: functional, cell-based. The following applies: A549, 72 h.
Test [10] deals with HCT-116. The test is described as follows: Induction of apoptosis in human HCT116 cells assessed as late apoptotic cells at 2 uM after 24 hrs using annexin V/propidium iodide staining based flow cytometry (reference value: 0.710%). Format: functional.
Test [11] deals with HCT-116. The test is described as follows: Induction of apoptosis in human HCT116 cells assessed as late apoptotic cells at 0.5 uM after 24 hrs using annexin V/propidium iodide staining based flow cytometry (reference value: 0.710%). Format: functional.
For test [12], the target named is Phosphatidylinositol 4,5-bisphosphate 3-kinase catalytic subunit alpha isoform (Homo sapiens, UniProt P42336). In words: Inhibition of recombinant PI3Kalpha (unknown origin) using […] as substrate after 3 hrs incubation by competitive fluorescence polarization kinase activity assay.
Chain of Phosphatidylinositol 4,5-bisphosphate 3-kinase catalytic subunit alpha isoform (P42336 whole entry, canonical isoform): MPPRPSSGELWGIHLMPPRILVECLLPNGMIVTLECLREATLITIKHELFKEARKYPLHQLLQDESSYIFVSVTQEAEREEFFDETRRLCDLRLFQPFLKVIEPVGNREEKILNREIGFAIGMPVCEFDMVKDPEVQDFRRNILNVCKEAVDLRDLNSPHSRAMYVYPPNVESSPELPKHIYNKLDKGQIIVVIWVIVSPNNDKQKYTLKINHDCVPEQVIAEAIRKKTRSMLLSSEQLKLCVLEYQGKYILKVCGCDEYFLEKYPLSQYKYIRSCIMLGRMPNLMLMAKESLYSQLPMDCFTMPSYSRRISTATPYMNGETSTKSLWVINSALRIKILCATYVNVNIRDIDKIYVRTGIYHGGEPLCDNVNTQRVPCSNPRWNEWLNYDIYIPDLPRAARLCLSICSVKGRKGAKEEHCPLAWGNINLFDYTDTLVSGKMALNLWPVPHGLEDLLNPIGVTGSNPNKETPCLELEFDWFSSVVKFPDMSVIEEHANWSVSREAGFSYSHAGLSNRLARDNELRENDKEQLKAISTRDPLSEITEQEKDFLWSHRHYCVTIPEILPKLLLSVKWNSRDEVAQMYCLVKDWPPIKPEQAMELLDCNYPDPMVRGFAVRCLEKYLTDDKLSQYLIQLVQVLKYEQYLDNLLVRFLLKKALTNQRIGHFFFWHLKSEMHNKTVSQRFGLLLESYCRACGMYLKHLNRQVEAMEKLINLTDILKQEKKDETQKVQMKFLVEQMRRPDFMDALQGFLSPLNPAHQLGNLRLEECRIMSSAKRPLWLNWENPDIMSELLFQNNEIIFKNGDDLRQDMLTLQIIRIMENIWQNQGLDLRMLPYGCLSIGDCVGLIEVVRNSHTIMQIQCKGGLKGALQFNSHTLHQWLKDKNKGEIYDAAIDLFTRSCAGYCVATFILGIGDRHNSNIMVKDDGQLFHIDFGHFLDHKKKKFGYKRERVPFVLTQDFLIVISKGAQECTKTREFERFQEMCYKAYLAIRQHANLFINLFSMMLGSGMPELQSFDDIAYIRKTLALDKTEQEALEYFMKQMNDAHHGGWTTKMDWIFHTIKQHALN
Test [13] relates to HCT-116. The test is described as follows: Induction of apoptosis in human HCT116 cells after 24 hrs using annexin V/propidium iodide staining based flow cytometry. The class given is functional, cell-based.
Test [14] has as its system HCT-116. In words: Induction of apoptosis in human HCT116 cells assessed as late apoptotic cells at 1 uM after 24 hrs using annexin V/propidium iodide staining based flow cytometry (reference value: 0.710%). The class given is functional.
For test [15], the target named is Phosphatidylinositol 4,5-bisphosphate 3-kinase catalytic subunit beta isoform (Homo sapiens, UniProt P42338). In words: Inhibition of recombinant PI3Kbeta (unknown origin) […] after 3 hrs incubation by competitive fluorescence polarization kinase activity assay.
Chain of Phosphatidylinositol 4,5-bisphosphate 3-kinase catalytic subunit beta isoform (P42338 whole entry, canonical isoform): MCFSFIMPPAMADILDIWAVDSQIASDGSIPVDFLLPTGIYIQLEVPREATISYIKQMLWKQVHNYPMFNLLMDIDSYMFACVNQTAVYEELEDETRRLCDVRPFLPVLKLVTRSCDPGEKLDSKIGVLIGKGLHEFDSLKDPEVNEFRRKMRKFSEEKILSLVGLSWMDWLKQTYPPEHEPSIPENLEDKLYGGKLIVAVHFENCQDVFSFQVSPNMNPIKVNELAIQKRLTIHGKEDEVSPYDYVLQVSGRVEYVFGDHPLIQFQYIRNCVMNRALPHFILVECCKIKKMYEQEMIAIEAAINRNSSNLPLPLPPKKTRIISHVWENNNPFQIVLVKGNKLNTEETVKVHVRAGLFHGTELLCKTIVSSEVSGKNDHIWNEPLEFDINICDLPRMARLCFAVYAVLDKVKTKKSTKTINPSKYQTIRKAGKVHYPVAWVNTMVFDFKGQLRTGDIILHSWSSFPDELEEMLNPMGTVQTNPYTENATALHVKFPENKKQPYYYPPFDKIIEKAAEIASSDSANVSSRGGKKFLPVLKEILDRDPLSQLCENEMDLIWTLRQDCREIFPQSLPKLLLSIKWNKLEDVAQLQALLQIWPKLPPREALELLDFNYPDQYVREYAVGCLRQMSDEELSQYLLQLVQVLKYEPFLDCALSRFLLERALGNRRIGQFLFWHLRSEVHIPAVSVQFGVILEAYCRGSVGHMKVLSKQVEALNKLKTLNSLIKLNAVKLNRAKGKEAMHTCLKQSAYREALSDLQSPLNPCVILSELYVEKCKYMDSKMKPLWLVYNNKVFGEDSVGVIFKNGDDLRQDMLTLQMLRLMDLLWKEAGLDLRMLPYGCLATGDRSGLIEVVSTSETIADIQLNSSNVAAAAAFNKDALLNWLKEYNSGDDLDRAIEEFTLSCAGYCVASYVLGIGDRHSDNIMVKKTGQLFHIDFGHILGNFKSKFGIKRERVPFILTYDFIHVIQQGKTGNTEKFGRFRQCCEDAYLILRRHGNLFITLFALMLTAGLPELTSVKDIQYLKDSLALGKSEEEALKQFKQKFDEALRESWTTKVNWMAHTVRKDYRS
For test [16], the system named is HCT-116. In words: Induction of apoptosis in human HCT116 cells assessed as necrotic cells at 1 uM after 24 hrs using annexin V/propidium iodide staining based flow cytometry (reference value: 4.09%). The class given is functional.
Test [17] has as its system HCT-116. The test is described as follows: Induction of apoptosis in human HCT116 cells assessed as viable cells at 2 uM after 24 hrs using annexin V/propidium iodide staining based flow cytometry (reference value: 93.3%). The class given is functional. The following applies: HCT-116, 24 h, read-out: Activity.
Test [18] deals with HCT-116. The test is described as follows: Induction of apoptosis in human HCT116 cells assessed as necrotic cells at 0.5 uM after 24 hrs using annexin V/propidium iodide staining based flow cytometry (reference value: 4.09%). Format: functional.
Test [19] concerns the target Phosphatidylinositol 4,5-bisphosphate 3-kinase catalytic subunit gamma isoform (Homo sapiens, UniProt P48736). In words: Inhibition of recombinant PI3Kgamma (unknown origin) using […] as substrate after 3 hrs incubation by competitive fluorescence polarization kinase activity assay.
For test [20], the system named is HCT-116. The test is described as follows: Induction of apoptosis in human HCT116 cells assessed as viable cells at 1 uM after 24 hrs using annexin V/propidium iodide staining based flow cytometry (reference value: 93.3%). The class given is functional. The settings on record: HCT-116, 24 h, read-out: Activity.
Test [21] has as its system HCT-116. The test is described as follows: Induction of apoptosis in human HCT116 cells assessed as necrotic cells at 2 uM after 24 hrs using annexin V/propidium iodide staining based flow cytometry (reference value: 4.09%). Format: functional.

Chain of Phosphatidylinositol 4,5-bisphosphate 3-kinase catalytic subunit gamma isoform (P48736 whole entry, canonical isoform): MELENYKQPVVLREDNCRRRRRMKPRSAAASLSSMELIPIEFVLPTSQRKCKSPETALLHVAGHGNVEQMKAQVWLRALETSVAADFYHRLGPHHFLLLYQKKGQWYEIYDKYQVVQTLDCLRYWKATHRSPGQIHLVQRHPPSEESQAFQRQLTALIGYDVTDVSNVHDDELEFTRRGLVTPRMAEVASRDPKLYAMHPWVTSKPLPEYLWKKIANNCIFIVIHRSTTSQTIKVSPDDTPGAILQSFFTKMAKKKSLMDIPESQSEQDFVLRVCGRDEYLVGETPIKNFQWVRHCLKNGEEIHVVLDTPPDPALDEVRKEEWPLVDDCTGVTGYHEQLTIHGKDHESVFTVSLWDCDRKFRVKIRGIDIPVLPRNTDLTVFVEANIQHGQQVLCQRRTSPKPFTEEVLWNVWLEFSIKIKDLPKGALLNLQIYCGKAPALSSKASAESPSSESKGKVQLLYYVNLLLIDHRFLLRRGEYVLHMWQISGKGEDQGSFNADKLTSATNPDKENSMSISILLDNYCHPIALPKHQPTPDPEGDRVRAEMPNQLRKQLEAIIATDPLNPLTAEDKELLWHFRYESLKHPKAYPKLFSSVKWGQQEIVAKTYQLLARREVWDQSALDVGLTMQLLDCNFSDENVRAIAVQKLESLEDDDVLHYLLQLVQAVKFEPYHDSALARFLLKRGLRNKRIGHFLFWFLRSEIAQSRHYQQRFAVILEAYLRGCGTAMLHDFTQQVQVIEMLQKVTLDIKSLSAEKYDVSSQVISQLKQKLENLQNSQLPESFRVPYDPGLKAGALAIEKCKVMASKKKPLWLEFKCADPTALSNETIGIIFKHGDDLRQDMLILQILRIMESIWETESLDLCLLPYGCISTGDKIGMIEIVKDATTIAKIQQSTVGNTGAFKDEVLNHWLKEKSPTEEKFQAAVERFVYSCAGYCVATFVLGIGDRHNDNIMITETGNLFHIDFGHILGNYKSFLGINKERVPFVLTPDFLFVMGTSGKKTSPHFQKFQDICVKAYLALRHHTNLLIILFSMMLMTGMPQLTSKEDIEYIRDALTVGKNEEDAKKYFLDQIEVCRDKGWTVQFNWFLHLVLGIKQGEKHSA

For `Cc1ccc2c(c1)-c1nc3cc([N+](=O)[O-])ccc3n1CCO2`, the IC50 in test [1] stood at 34600 nM; in [3], 80 nM; in test [6] it was 120 nM; in [8] it was 100 nM; in the test on A549, 110 nM; in test [12], 16 nM. The IC50 came out at 184 nM in [15] and 9440 nM in test [19]. Besides, the Activity result is “Dose-dependent effect” in the test on HCT-116 [2]; 15.1% with HCT-116 [4]; 17.8% with HCT-116 [5]; 27.3% in the test with HCT-116 [9]; 5.98% with HCT-116 [10]; 4.91% in the test on HCT-116 [11]. Moreover, the Activity result was “Dose-dependent effect” with HCT-116 [13]; 4.13% in the test with HCT-116 [14]; 1.26% in the test with HCT-116 [16]; 0.523% in the test on HCT-116 [18]; 0.974% in the test with HCT-116 [21]. Also, the viability at 0.5 µM in the test on HCT-116 [7] was 79.5%. In addition, in the test with HCT-116 [17], the viability at 2 µM was determined as 65.7%. In addition, the viability at 1 µM in the test with HCT-116 [20] worked out at 76.8%.
